The values that follow come from patent US20110009420A1, “Histamine H3 Receptor Ligands” (HIGH POINT PHARMACEUTICALS, LLC, priority 2008, published 2011).

The structures appear in SMILES notation. pKi: −log10 of the molar value. Where a name gives a salt, the structure may show the parent alone. Read-outs that look alike come from different tables or passages of the source.

Data set [1] addresses T1, human histamine H3 receptor (Homo sapiens, UniProt Q9Y5N1).
T1 construct: expressed in transfected cells
As to the kind of experiment: functional [35S]GTPγS binding assay (antagonist potency, inhibition of RAMHA-stimulated binding). The conditions noted are these: for [35S]GTPγS binding Ki(nM): functional Ki from full dose-response IC50 by Cheng-Prusoff, 10 nM RAMHA, re-synthesized compounds. The class given is biochemical. How it is done:
CHO-cells, stably expressing the human histamine H3 receptor, were harvested and membranes were prepared by threefold homogenization in a HEPES buffer (20 mM HEPES, 0.1-10 mM EDTA; pH 7.4). […] The hits were subsequently tested in full dose-response curves for functional IC50 determinations. After 2 h incubation at RT with gentle shaking of the plate, the plate was centrifuged at 370 RCF for 10 min and subsequently the radioactivity was counted in a Packard TopCount-NXT.
The IC50 values were calculated by non-linear regression analysis using GraphPad Prism.
(In general: Binding of GTPγS marks nucleotide exchange on a G protein.)

Where [2] appears, read: read-out: [35S]GTPγS binding Ki.

T1 sequence (Q9Y5N1 whole entry): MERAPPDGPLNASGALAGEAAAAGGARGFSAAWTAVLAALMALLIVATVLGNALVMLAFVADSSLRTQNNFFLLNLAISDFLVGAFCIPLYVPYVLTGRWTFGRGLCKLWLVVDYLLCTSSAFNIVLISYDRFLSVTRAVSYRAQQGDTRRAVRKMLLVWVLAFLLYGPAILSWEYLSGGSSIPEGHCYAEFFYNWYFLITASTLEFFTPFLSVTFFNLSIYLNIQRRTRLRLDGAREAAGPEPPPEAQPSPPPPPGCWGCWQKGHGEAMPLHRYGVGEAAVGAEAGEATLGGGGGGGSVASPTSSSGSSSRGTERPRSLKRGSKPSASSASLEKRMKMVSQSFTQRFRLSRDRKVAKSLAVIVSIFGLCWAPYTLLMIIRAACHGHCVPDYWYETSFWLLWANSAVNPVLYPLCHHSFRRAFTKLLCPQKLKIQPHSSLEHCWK

Usually melting point stands for the temperature, or range, at which the solid turns liquid. The compound `O=C(c1cc2ccccc2s1)N1CCN(CCCN2CCCCC2)CC1` (as salt: hydrochloride) (hydrate or solvate) [Compound A11B12] displayed a melting point of 265 to 267 °C.

With `O=C(c1cc2ccccc2o1)N1CCN(CCCN2CCCCC2)CC1` (as salt: hydrochloride) (hydrate or solvate) [Compound A12B12, Benzofuran-2-yl-(4-(3-(piperidin-1-yl)propyl)piperazin-1-yl)methanone, dihydrochloride], the melting point was 253 to 255 °C.

The compound `COc1ccc2oc(C(=O)N3CCN(CCCN4CCCCC4)CC3)cc2c1` (as salt: hydrochloride) (hydrate or solvate) [Compound A13B12] gave a melting point of 255 to 257 °C.

Regarding `O=C(Cc1ccc(-c2ccccc2)cc1)N1CCN(CCCN2CCCCC2)CC1` (as salt: hydrochloride) (hydrate or solvate) [Compound A15B12], the melting point lay in the range of 274 to 276 °C.

`O=C(CC1c2ccccc2-c2ccccc21)N1CCN(CCCN2CCCCC2)CC1` (as salt: hydrochloride) (hydrate or solvate) [Compound A18B12, 2-(9H-Fluoren-9-yl)-1-(4-(3-(piperidin-1-yl)propyl)piperazin-1-yl)ethanone, dihydrochloride] displayed a melting point of 263 to 265 °C.

`O=C(Cc1c[nH]c2ccccc12)N1CCN(CCCN2CCCCC2)CC1` (as salt: hydrochloride) [Compound A14B12] came in with a melting point of 256 to 258 °C.

The compound `O=C(c1cccc(Oc2ccccc2)c1)N1CCN(CCCN2CCCCC2)CC1` (as salt: hydrochloride) [Compound A21B12] registered a melting point of 274 to 276 °C.

By inhibition is commonly meant the drop in the measured response relative to a control, in per cent. A lower inhibition goes with little suppression. What is called pKi is −log10 of the Ki, conventionally taken in molar units. `O=C(c1cc2ccccc2s1)N1CCN(CCCN2CCCCC2)CC1` [Compound A11B12] returned an inhibition at 3.5 µM in data set [1] of 57%. The pKi in data set [1] (setting [2]) was 7.46.

On to `O=C(c1cc2ccccc2o1)N1CCN(CCCN2CCCCC2)CC1` [Compound A12B12, Benzofuran-2-yl-(4-(3-(piperidin-1-yl)propyl)piperazin-1-yl)methanone, dihydrochloride], for which 3.5 µM produced 70% inhibition in data set [1]. The pKi in data set [1] (setting [2]) is 7.72.

On to `COc1ccc2oc(C(=O)N3CCN(CCCN4CCCCC4)CC3)cc2c1` [Compound A13B12], for which at 3.5 µM the inhibition in data set [1] was 60%. Further, the pKi in data set [1] (setting [2]) is 7.80.

In the case of `O=C(Cc1c[nH]c2ccccc12)N1CCN(CCCN2CCCCC2)CC1` [Compound A14B12], in data set [1], the pKi was 8.00, the inhibition at 3.5 µM came to 73% and the “[35S]GTPγS binding Ki(nM)” value is “low nanomolar range”.

Regarding `O=C(Cc1ccc(-c2ccccc2)cc1)N1CCN(CCCN2CCCCC2)CC1` [Compound A15B12], in data set [1], the pKi was 7.29 and 3.5 µM produced 56% inhibition.

As for `O=C(CC1c2ccccc2-c2ccccc21)N1CCN(CCCN2CCCCC2)CC1` [Compound A18B12, 2-(9H-Fluoren-9-yl)-1-(4-(3-(piperidin-1-yl)propyl)piperazin-1-yl)ethanone, dihydrochloride], in data set [1], 3.5 µM produced 74% inhibition and the “[35S]GTPγS binding Ki(nM)” value is listed as “low nanomolar range”. In data set [1] (setting [2]), the pKi is 8.13.

The compound `O=C(c1cccc(Oc2ccccc2)c1)N1CCN(CCCN2CCCCC2)CC1` [Compound A21B12] showed an inhibition at 3.5 µM in data set [1] of 62%. For the same compound, the pKi in data set [1] (setting [2]) was 7.64.
